Here are results for 2 compounds from US10471161B2, “Vinylsulfone-based 18F-labeling compositions and methods and uses thereof” (priority 2014, dated 2019).

The target of one data set is T1, NTR1 (Homo sapiens, UniProt P30989).
T1 construct: host or cells: HT-29 human colon adenocarcinoma cells (intact, adherent)
Description: competitive cell-binding assay with 125I-NT(8-13) in HT-29 cells. The settings on record: 1 hr at 37° C, n=3, read-out: IC50, inhibition of binding of 125I-NT(8-13) to NTR1 positive HT-29 cells.

Data set [1] is described as follows: in vitro stability, incubation in PBS, radio-HPLC. In kind it is physicochemical. As to conditions: 4 hr post HPLC purification. The procedure: ^18F-DEG-VS (100 μL, 1 mCi) and 30 μL of borate buffer (pH 8.5) were added into Neurotensin (100 μg, […]) or (Ac)-NT and the reaction mixture was incubated at room temperature for 5-10 min. The reaction was quenched by acetic acid (5%, 600 μL) and product was purified by radio HPLC using Method 1. The retention time of ^18F-DEG-VS-NT was 25.6 min and (^18F-DEG-VS)2-NT was not observed. […] An aliquot of the solution was then analyzed by radio-HPLC to determine the radiochemical purify. The retention time of ^18F-DEG-VS-(Ac)-NT was 28.4 min.

Where a SMILES comes first, the peptide text is derived from it. [ ]: non-standard residue; d: D form. The star is where a group is joined. ξ: configuration not given here. ξGly(4-Pip(1-amidino)) = N=C(N)N1CCC(C(N)C(=O)O)CC1; ξGly(piperidin-4-yl) = NC(C(=O)O)C1CCNCC1; Tle = CC(C)(C)[C@H](N)C(=O)O; X1 = O=S(=O)(CCOCCOCCF)CC*

T1 sequence (P30989 whole entry): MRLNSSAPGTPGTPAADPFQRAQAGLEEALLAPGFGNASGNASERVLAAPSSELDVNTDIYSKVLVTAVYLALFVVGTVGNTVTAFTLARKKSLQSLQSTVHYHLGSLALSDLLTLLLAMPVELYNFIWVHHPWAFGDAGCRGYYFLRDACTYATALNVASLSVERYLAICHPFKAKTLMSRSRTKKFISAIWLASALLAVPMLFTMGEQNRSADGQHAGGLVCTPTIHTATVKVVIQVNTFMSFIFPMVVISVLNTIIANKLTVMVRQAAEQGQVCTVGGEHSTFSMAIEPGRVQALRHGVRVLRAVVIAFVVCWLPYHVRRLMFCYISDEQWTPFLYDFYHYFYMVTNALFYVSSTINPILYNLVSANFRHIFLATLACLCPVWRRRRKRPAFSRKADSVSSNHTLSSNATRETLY
Description for NTR1: The human colon adenocarcinoma cell HT29 was obtained from American Type Culture Collection and maintained at 37° C. in a humidified atmosphere containing 5% CO2 in RPMI-1640, supplemented with 1% L-glutamine, 1% penicillin/streptomycin and 10% fetal bovine serum (Life Technologies, Inc.).
In detail, HT-29 cells were placed in 48-wells plates (1 million/0.4 mL/well) and were incubated for overnight. The cells were washed three times with binding buffer (50 mM Hepes, 125 mM NaCl, 7.5 mM KCl, 5.5 mM MgCl2, 1 mM EGTA, 5 g/L BSA, 2 mg/L chymostatin, 100 mg/L soybean trypsin inhibitor, 50 mg/L bacitracin, pH 7.4). […] After washing, cells were solubilized with 1 mol/L NaOH at 37° C. and the radioactivity was determined using a gamma counter. The best-fit 50% inhibitory concentration (IC50) values for HT-29 cells were calculated by fitting the data with nonlinear regression using GraphPad Prism (GraphPad Software). Experiments were performed on triplicate samples.

One may read the IC50 as the point on the concentration scale where inhibition reaches its midpoint. Regarding `CC(C)C[C@H](NC(=O)[C@@H](NC(=O)[C@H](Cc1ccc(O)cc1)NC(=O)[C@@H]1CCCN1C(=O)[C@H](CCCNC(=N)N)NC(=O)C(NC(=O)[C@@H]1CCCN1C(=O)C(NC(=O)[C@@H](N)CSCCS(=O)(=O)CCOCCOCCF)C1CCNCC1)C1CCN(C(=N)N)CC1)C(C)(C)C)C(=O)O` (stereo partly drawn) [^19F-DEG-VS-NT] (H-C(X1)[ξGly(piperidin-4-yl)]P[ξGly(4-Pip(1-amidino))]RPY[Tle]L-OH), at NTR1, the IC50 was found to be 2.03 ± 0.22 nM.
As for `C=CS(=O)(=O)CCOCCOCC[18F]` [^18F-DEG-VS], the “radiochemical purity after incubation in PBS” value in data set [1] is recorded as “more than 99%”.
